Laboratory results reported in US8268840B2, “Pyrimidinyl pyridone inhibitors of kinases” (Roche Palo Alto LLC, priority 2008, dated 2012).

Row | melting point [°C] | SMILES
1 | > 300 | CC(=O)N[C@H]1CC[C@H](Nc2ncc3c(N)cc(=O)n(CCCO)c3n2)CC1 [Compound I-42, N-{4-[5-Amino-8-(3-hydroxy-propyl)-7-oxo-7,8-dihydro-pyrido[2,3-d]pyrimidin-2-ylamino]-cyclohexyl}-acetamide]
2 | 281 to 283 | CC(=O)N1CCC(Nc2ncc3c(N)c(C)c(=O)n(C4CCCC4)c3n2)CC1 [Compound I-59, 2-(1-Acetyl-piperidin-4-ylamino)-5-amino-8-cyclopentyl-6-methyl-8H-pyrido[2,3-d]pyrimidin-7-one]
3 | > 300 | Cc1c(N)c2cnc(NC3CCN(S(C)(=O)=O)CC3)nc2n([C@@H]2CCOC2)c1=O [Compound I-53, 5-Amino-2-(1-methanesulfonyl-piperidin-4-ylamino)-6-methyl-8-(R)-tetrahydro-furan-3-yl-8H-pyrido[2,3-d]pyrimidin-7-one]
4 | 201.3 to 202.6 | CCOC(=O)N1CCC(Nc2ncc3c(N)c(C)c(=O)n(C4CCC4)c3n2)CC1 [Compound I-56, 4-(5-Amino-8-cyclobutyl-6-methyl-7-oxo-7,8-dihydro-pyrido[2,3-d]pyrimidin-2-ylamino)-piperidine-1-carboxylic acid ethyl ester]
5 | 292 to 294 | Nc1cc(=O)n(C2CCCCC2)c2nc(N[C@H]3CC[C@H](O)CC3)ncc12 [Compound I-6, 5-Amino-8-cyclohexyl-2-(4-hydroxy-cyclohexylamino)-8H-pyrido[2,3-d]pyrimidin-7-one]
6 | 173 to 174 | Cc1c(N)c2cnc(N[C@H]3CC[C@H](C(=O)N4CCC(O)CC4)CC3)nc2n([C@@H]2CCOC2)c1=O [Compound I-47, 5-Amino-2-[4-(4-hydroxy-piperidine-1-carbonyl)-cyclohexylamino]-6-methyl-8-(R)-tetrahydro-furan-3-yl-8H-pyrido[2,3-d]pyrimidin-7-one]
7 | 191.5 to 193 | Cc1c(N)c2cnc(N[C@H]3CC[C@H](C(=O)N4CCC(O)CC4)CC3)nc2n(C2CCC2)c1=O [Compound I-15, 5-Amino-8-cyclobutyl-2-[4-(4-hydroxy-piperidine-1-carbonyl)-cyclohexylamino]-6-methyl-8H-pyrido[2,3-d]pyrimidin-7-one]
8 | 172.6 to 176.6 | CC(=O)N[C@H]1CC[C@H](Nc2ncc3c(N)cc(=O)n(C4CCCC4)c3n2)CC1 [Compound I-11, N-[4-(5-Amino-8-cyclopentyl-7-oxo-7,8-dihydro-pyrido[2,3-d]pyrimidin-2-ylamino)-cyclohexyl]-acetamide]
9 | 257 to 259 | COC(=O)N[C@H]1CC[C@H](Nc2ncc3c(N)cc(=O)n(C4CC4)c3n2)CC1 [Compound I-39, [4-(5-Amino-8-cyclopropyl-7-oxo-7,8-dihydro-pyrido[2,3-d]pyrimidin-2-ylamino)-cyclohexyl]-carbamic acid methyl ester]
10 | 210 to 211.5 | CC(=O)N[C@H]1CC[C@H](Nc2ncc3c(N)cc(=O)n([C@@H]4CC[C@@H](O)C4)c3n2)CC1 [Compound I-18, N-{4-[5-Amino-8-((1R,3R)-3-hydroxy-cyclopentyl)-7-oxo-7,8-dihydro-pyrido[2,3-d]pyrimidin-2-ylamino]-cyclohexyl}-acetamide]
11 | 170 to 171 | CC(C)c1c(N)c2cnc(N[C@H]3CC[C@H](C(=O)N4CCC(O)CC4)CC3)nc2n(C2CCC2)c1=O [Compound I-25, 5-Amino-8-cyclobutyl-2-[4-(4-hydroxy-piperidine-1-carbonyl)-cyclohexylamino]-6-isopropyl-8H-pyrido[2,3-d]pyrimidin-7-one]
12 | 190 to 191 | COC(=O)N[C@H]1CC[C@H](Nc2ncc3c(N)cc(=O)n(CCCO)c3n2)CC1 [Compound I-43, {4-[5-Amino-8-(3-hydroxy-propyl)-7-oxo-7,8-dihydro-pyrido[2,3-d]pyrimidin-2-ylamino]-cyclohexyl}-carbamic acid methyl ester]
13 | 221.9 to 223.8 | Nc1cc(=O)n(Cc2ccccc2)c2nc(NC3CCCCC3)ncc12 [Compound I-66, 5-Amino-8-benzyl-2-cyclohexylamino-8H-pyrido[2,3-d]pyrimidin-7-one]
14 | > 300 | CS(=O)(=O)N[C@H]1CC[C@H](Nc2ncc3c(N)cc(=O)n(C4CCCCC4)c3n2)CC1 [Compound I-14, N-[4-(5-Amino-8-cyclohexyl-7-oxo-7,8-dihydro-pyrido[2,3-d]pyrimidin-2-ylamino)-cyclohexyl]-methanesulfonamide]
15 | 256.3 to 258.7 | Nc1cc(=O)n(C2CC2)c2nc(N[C@H]3CC[C@H](O)CC3)ncc12 [Compound I-22, 5-Amino-8-cyclopropyl-2-(4-hydroxy-cyclohexylamino)-8H-pyrido[2,3-d]pyrimidin-7-one]
16 | > 300 | CCc1c(N)c2cnc(N[C@H]3CC[C@H](NC(C)=O)CC3)nc2n(C2CCCC2)c1=O [Compound I-23, N-[4-(5-Amino-8-cyclopentyl-6-ethyl-7-oxo-7,8-dihydro-pyrido[2,3-d]pyrimidin-2-ylamino)-cyclohexyl]-acetamide]
17 | 160 to 161 | Nc1c(-c2ccccc2)c(=O)n(C2CCC2)c2nc(NC3CCCCC3)ncc12 [Compound I-31, 5-Amino-8-cyclobutyl-2-cyclohexylamino-6-phenyl-8H-pyrido[2,3-d]pyrimidin-7-one]
18 | 236.1 to 239.1 | Nc1cc(=O)n(CC2CC2)c2nc(NC3CCC3)ncc12 [Compound I-55, 5-Amino-2-cyclobutylamino-8-cyclopropylmethyl-8H-pyrido[2,3-d]pyrimidin-7-one]
19 | 282 to 285 | CC(=O)N1CCC(Nc2ncc3c(N)cc(=O)n(C4CCCC4)c3n2)CC1 [Compound I-30, 2-(1-Acetyl-piperidin-4-ylamino)-5-amino-8-cyclopentyl-8H-pyrido[2,3-d]pyrimidin-7-one]
20 | 175 to 176 | Nc1c(-c2ccccc2Cl)c(=O)n(C2CCC2)c2nc(NC3CCCCC3)ncc12 [Compound I-16, 5-Amino-6-(2-chloro-phenyl)-8-cyclobutyl-2-cyclohexylamino-8H-pyrido[2,3-d]pyrimidin-7-one]
21 | 117 to 118 | Nc1cc(=O)n(C2CC2)c2nc(NC3CCCCC3)ncc12 [Compound I-26, 5-Amino-2-cyclohexylamino-8-cyclopropyl-8H-pyrido[2,3-d]pyrimidin-7-one]
22 | 125 to 130 | Nc1cc(=O)n(C2CCCC2)c2nc(NC3CCCCC3)ncc12 [Compound I-17, 5-Amino-2-cyclohexylamino-8-cyclopentyl-8H-pyrido[2,3-d]pyrimidin-7-one]
23 | 160 to 164 | Nc1cc(=O)n(C2CCCCC2)c2nc(NC3CCOCC3)ncc12 [Compound I-51, 5-Amino-8-cyclohexyl-2-(tetrahydro-pyran-4-ylamino)-8H-pyrido[2,3-d]pyrimidin-7-one]
24 | 240 to 244.1 | Nc1cc(=O)n(C2CCCCC2)c2nc(NC3CCC(F)(F)CC3)ncc12 [Compound I-57, 5-Amino-8-cyclohexyl-2-(4,4-difluoro-cyclohexylamino)-8H-pyrido[2,3-d]pyrimidin-7-one]
25 | 135 to 137.4 | Nc1cc(=O)n(CC2CC2)c2nc(NC3CCOCC3)ncc12 [Compound I-46, 5-Amino-8-cyclopropylmethyl-2-(tetrahydro-pyran-4-ylamino)-8H-pyrido[2,3-d]pyrimidin-7-one]
